Values quoted from earlier work in patent US20090118352A1, “Broad spectrum microbicidal and spermicidal compositions and methods” (ESAWTECH, LTD., priority 2007, published 2009).

Experiments:
HIV [1] = settings: phase III trial
[2] = system: epithelial cells in the vagina
HIV [3] = settings: clinical trial in women, stopped 2007

In the case of NONOXYL-9 [N-9], the “HIV transmission rate versus placebo” value (HIV [1]; N-9 group) is listed as “marginally higher”, the “efficacy in preventing HIV transmission” value (HIV [1]; UN Joint Programme on HIV/AIDS, 2002) is listed as “no efficacy” and the “effect on epithelial cells in the vagina” value [2] is listed as “can disrupt epithelial cells in the vagina”.

For cellulose sulfate, the “HIV infections, active group versus placebo group” value (HIV [3]) is listed as “higher number of HIV infections in the active group compared with the placebo group”.
